Assay results from patent US20090005398A1, “Methods For The Treatment of Central Nervous System Tumors” (priority 2007, published 2009).

How the values were obtained:
Assay type in all cases: cell-based
[1] = system: HFF (normal human foreskin fibroblasts); assay: Methylene blue growth inhibition assay; conditions: Fibroblast, 72 h
Protocol: (§1) Generally, exponentially growing cell lines of different tumor origins, cultured in appropriate media containing 10% fetal bovine serum at 37° C. in a 5% CO2 incubator were plated at low density (less than 2000 cells/well) in 96-well plates. Twenty four hours post-plating, cells were treated with different concentrations of compound ranging from 10 uM to 0.04 nM. Several wells were left untreated as a control. Seventy two hours post-treatment, cell numbers were determined using 100 μl per well of methylene blue (Sigma M9140) (0.5% in 50:50 Ethanol:water). Stain was incubated at room temperature for 30 minutes before plates were rinsed and dye solubilized in 1% N-lauroyl sarcosine, sodium salt, (Sigma L5125, in PBS) (further details of a methylene blue assay are described below). Plates were read on a microplate reader, measuring the OD at 620 nm.
(§2) Concentration of test compound that inhibited 50% of cell growth (IC50) was determined by 4 parameter fit of data using XLfit, (value of no cell control was subtracted from all samples for background). The data are shown in Table 1 below and represent a compilation of several different experiments, each performed using the general parameters outlined above, although minor variations may have been employed in some instances.
(§3) In one assay, normal human foreskin fibroblasts (HFF), human colon (HCT116, RKO), lung (H460, A549) and breast (MCF7) tumor cell lines were cultured in high glucose DMEM (Life Technologies) containing 10% fetal bovine serum (FBS) at 37° C. in a humidified 5% CO2, 95% air incubator. Cells were harvested using trypsin/EDTA, counted using a haemocytometer, and plated in 100 μL of culture media per well, at the following densities, in a 96-well tissue culture plate (Falcon 3075): HFF 5,000 cells/well, HCT116 3,000 cells/well, RKO 2,500 cells/well, H460 2,500 cells/well, A549 5,000 cells/well, MCF7 4,000 cells/well. The next day, compound was diluted in low glucose DMEM containing 100 μg/mL gentamicin, at twice the final required concentration, from 10 mM stock solutions in DMSO. 100 μL/well of these dilutions were added to the 100 μL of media currently in the assay plates. Medium containing 0.6% DMSO was added to control wells. The final concentration of DMSO in all wells was 0.3%. Cells were incubated at 37° C., 5% CO2 for 72 h. Medium was removed by aspiration. Cell biomass was estimated by staining cells with 80 μL per well methylene blue (Sigma M9140, 0.5% in 50:50 ethanol:water), and incubation at room temperature for 30-60 min. Stain was removed by aspiration and the plates rinsed by immersion in water, then air-dried. To release stain from the cells, 100 μL of solubilization solution was added (1% N-lauroyl sarcosine, Sodium salt, Sigma L5125, in PBS), and plates were shaken gently for about 30 min. Optical density at 620 nm was measured on a microplate reader. Percent inhibition of cell growth was calculated relative to vehicle treated control wells. Concentration of compound that inhibits 50% of cell growth (IC50) was interpolated using nonlinear regression (Levenberg-Marquardt) and the equation, y=Vmax*(1−(x/(K+x)))+Y2, where “K” was equal to the IC50.

A549 = assay: Methylene blue growth inhibition assay; conditions: Homo sapiens, 72 h
Protocol: as §1, §2, §3

MCF7 = assay: Methylene blue growth inhibition assay; conditions: Homo sapiens, 72 h
Protocol: as §1, §2, §3

HCT116 = assay: Methylene blue growth inhibition assay; conditions: Homo sapiens, HCT-116, 72 h
Protocol: as §1, §2, §3

RKO = assay: Methylene blue growth inhibition assay; conditions: Homo sapiens, 72 h
Protocol: as §1, §2, §3

H460 = assay: Methylene blue growth inhibition assay; conditions: Homo sapiens, NCI-H460, 72 h
Protocol: as §1, §2, §3

MiaPaca = assay: Cell-Titer-Glo cell proliferation; conditions: Homo sapiens, MIA PaCa-2, pancreas, 72 h
Protocol: (§4) Exponentially growing cell lines of different tumor origins, cultured in appropriate media containing 10% fetal bovine serum at 37° C. in a 5% CO2 incubator were plated at low density (less than 2000 cells/well) in 96-well plates. Twenty four hours post-plating, cells were treated with different concentrations of compound ranging from 10 uM to 0.04 nM. Several wells were left untreated as a control. Seventy two hours post-treatment, cell numbers were determined using 50-100 ul per well of CellTiter-Glo (Promega #G7573). Plates were incubated at room temperature for 15 minutes and the chemiluminescent signal was read on the Victor V or Envison 2100 reader.
as §2, with “of” for “of test”, “The Cell-Titer Glo” for “The”, “3” for “1”

MDA-MB-468 = assay: Cell-Titer-Glo cell proliferation; conditions: Homo sapiens, breast, 72 h
Protocol: as §4
as §2, with “of” for “of test”, “The Cell-Titer Glo” for “The”, “3” for “1”

ASPC3 = assay: Cell-Titer-Glo cell proliferation; conditions: pancreas, 72 h
Protocol: as §4
as §2, with “of” for “of test”, “The Cell-Titer Glo” for “The”, “3” for “1”

BXPC3 = assay: Cell-Titer-Glo cell proliferation; conditions: Homo sapiens, BXPC-3, pancreas, 72 h
Protocol: as §4
as §2, with “of” for “of test”, “The Cell-Titer Glo” for “The”, “3” for “1”

IC50 (A549): < 100 nM | IC50 (MCF7): < 100 nM | IC50 (HCT116): < 100 nM | IC50 (H460): < 100 nM | IC50 (MiaPaca): < 500 nM | IC50 (MDA-MB-468): < 500 nM | IC50 (ASPC3): < 500 nM | IC50 (BXPC3): < 500 nM
Structure (SMILES): C[C@@H](Oc1cc(-n2cnc3ccc(CN4CCN(C)CC4)cc32)sc1C(N)=O)c1ccccc1C(F)(F)F [Example 1, 5-{6-[(4-Methylpiperazin-1-yl)methyl]-1H-benzimidazol-1-yl}-3-{(1R)-1-[2-(trifluoromethyl)phenyl]ethoxy}thiophene-2-carboxamide]
IC50 [1]: < 100 nM | IC50 (RKO): < 100 nM
